Measured values taken from patent publication US20250009780A1, “AGENTS ENCODING CLDN6 AND CD3 BINDING ELEMENTS FOR TREATING CLDN6-POSITIVE CANCERS” (BIONTECH SE, priority 2021, published 2025).

Legend:
human CD3 = molecular target: T1, human CD3 (Homo sapiens, UniProt P07766); test: Flow cytometric binding assay, human PBMCs; conditions: 10 μg/mL
T1 construct: endogenous in cells; host or cells: human PBMCs (T cells)
Description: Cells were first gated for singlets followed by gating for viable lymphocytes (PBMCs) or viable HEK-293T-17 cells. […] Cynomolgus monkey or human PBMCs and HEK-293T-17 transductants stably expressing luciferase (HEK-293T-17_mock), CLDN3, 4, 6 or 9 served as target cells as indicated. The dotted vertical line marks the peak position of unstained populations.

MDA-MB-231 cell line = test: T-cell-mediated cytotoxicity assay (bioluminescence), MDA-MB-231; format: cell-based, human; conditions: CLDN6-negative MDA-MB-231; RiboMab02.1-containing mouse serum
Procedure: Human PBMCs from eight healthy donors were co-cultured with luciferase-expressing tumor cells. CLDN6-positive PA-1 (A) or OV-90 (B) cell lines were used as target cells and the CLDN6-negative MDA-MB-231 (A, B) cell line to control for target specificity. The assays were performed in a 384-well plate format with an effector-to-target-cell ratio of 20:1. Bioluminescence of viable tumor cells was measured as readout. Specific lysis percentages of tumor cell killing are presented. RiboMab02.1-containing mouse serum was serially-diluted (10-fold, 10-point; range: 5.0×10^−7 to 500 ng/mL) and added to the co-cultures, followed by incubation for (A) 24 h with PA-1 cells or (B) 48 h with OV-90 cells. Each line represents tumor cell lysis with an individual donor's PBMC sample.
Bioluminescence-based cytotoxicity assays were conducted using luciferase-expressing cell lines.
The CLDN6-positive human ovarian cancer cell lines PA-1 and OV-90 served to determine target-dependent lysis efficiency while the target-negative human breast cancer cell line MDA-MB-231 was used as negative control to confirm target-specific lysis. Human PBMCs from eight different healthy donors were used as effector cells to reflect the donor-dependent heterogeneity of human T-cell responses. […]

human PBMCs (T cells) = test: T-cell proliferation assay (CFSE-labeled PBMCs, flow cytometry); format: cell-based
Description: CFSE-labeled human PBMCs from three healthy donors were co-cultured with CLDN6-positive PA-1 and OV-90 target cells or with CLDN6-negative but control TAA-positive NUGC-4 as well as target-negative MDA-MB-231 control cells in a 12-well culture plate format. An effector-to-target-cell ratio of 10:1 was applied. In addition, PBMCs without (−) target cells were included separately. […] OKT3 antibody (anti-human CD3; black bars) served as positive control for target-independent CD3-driven T-cell proliferation. After 72 h of incubation, the percentages of proliferating T cells were analyzed by flow cytometry.
HEK-293T-17 producer cells were transfected with BNT142 or a control RiboMab-encoding RNA. Supernatants containing RiboMab02.1 or the control RiboMab (specific for an irrelevant TAA) were used as test items. Two concentrations (100 or 1 ng/mL) of RiboMab-containing supernatant were added to co-cultures of carboxyfluorescein succinimidyl ester (CFSE)-labeled human PBMCs and target-positive or -negative cells. PA-1 or OV-90 served as CLDN6-positive and MDA-MB-231 as target-negative cells. CLDN6-negative NUGC-4 cells (expressing the irrelevant TAA) as well as PBMCs in the absence of any target cells were included as further specificity controls. PBMCs from three healthy donors were compared in this assay. After 72 h of incubation, T cells were analyzed by flow cytometry to determine target-dependent proliferation.

[1] = Repeated-dose PK study of BNT142 in mice; format: in vivo, Balb/cJRj mice
Procedure: Female Balb/cJRj mice (n=4) were injected IV with 10 or 30 μg BNT142 or 30 μg Luc_RNA-LNP as control once weekly for a total of five administrations at the time points indicated by the horizontal dotted lines. Blood was drawn from mice at baseline (0 h), 6 h after (6, 174, 342, 510, and 678 h) and 24 h before (144, 312, 480, and 648 h) each BNT142 or saline administration, respectively. A final blood draw was done 816 h after the first BNT142/saline administration.
Treatment groups received five IV bolus injections of 10 or 30 μg BNT142 (approximately 0.4 and 1.2 mg/kg, respectively) or 30 μg Luc_RNA-LNP at a weekly interval. Serum samples were prepared from blood drawn from the animals at 6 h after (tmax) and 24 h prior to (last detectable concentration [Ctrough]) each BNT142 administration. […] The last blood samples were drawn 816 h (34 days) after the first injection.

T1 sequence (P07766 23-207): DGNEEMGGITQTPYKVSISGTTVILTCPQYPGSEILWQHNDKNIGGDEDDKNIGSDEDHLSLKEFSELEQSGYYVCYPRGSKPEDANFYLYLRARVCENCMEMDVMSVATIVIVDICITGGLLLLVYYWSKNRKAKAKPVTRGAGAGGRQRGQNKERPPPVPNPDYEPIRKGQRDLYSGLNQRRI
T1 sequence (P04234 22-171 partner): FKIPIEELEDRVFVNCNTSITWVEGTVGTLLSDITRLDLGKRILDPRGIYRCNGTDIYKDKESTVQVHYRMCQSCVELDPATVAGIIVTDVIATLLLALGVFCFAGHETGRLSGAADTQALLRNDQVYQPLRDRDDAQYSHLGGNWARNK
T1 sequence (P09693 23-182 partner): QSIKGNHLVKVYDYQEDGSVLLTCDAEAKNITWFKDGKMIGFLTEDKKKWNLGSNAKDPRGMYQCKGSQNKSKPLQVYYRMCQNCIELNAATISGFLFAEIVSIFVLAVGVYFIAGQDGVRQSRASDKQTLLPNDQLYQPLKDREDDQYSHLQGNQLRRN
T1 sequence (P20963 22-164 partner): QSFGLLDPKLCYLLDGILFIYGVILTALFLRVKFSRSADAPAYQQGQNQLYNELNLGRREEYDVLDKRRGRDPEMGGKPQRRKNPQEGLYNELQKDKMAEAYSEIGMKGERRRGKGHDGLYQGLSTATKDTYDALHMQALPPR

**Q.** Which “binding to human CD3” value (human CD3) does the source give for “RiboMab02.1: Fab-(scFv)2-based bispecific antibody (tribody) against CLDN6 and CD3 encoded by BNT142; SEQ ID NOs: 4 and 6; C53S” here?
**A.** Its value is “recognized”.

**Q.** And the target-independent lysis (MDA-MB-231 cell line)?
**A.** Its target-independent lysis is “did not induce target-independent (non-specific) lysis”.

**Q.** What about the T-cell proliferation (human PBMCs (T cells); PBMCs co-cultured with CLDN6-negative NUGC-4 cells) of the same substance?
**A.** Its T-cell proliferation is “no RiboMab02.1-driven T-cell proliferation”.

**Q.** What about the T-cell proliferation (human PBMCs (T cells); PBMCs co-cultured with MDA-MB-231 cells) of the same substance?
**A.** Its T-cell proliferation is “no RiboMab02.1-driven T-cell proliferation”.

**Q.** And the T-cell proliferation (human PBMCs (T cells); absence of any target cells)?
**A.** The T-cell proliferation was “no RiboMab02.1-driven T-cell proliferation”.

**Q.** What about the T-cell proliferation (human PBMCs (T cells); with OV-90 cells, 1 ng/mL, 72 h) of the same substance?
**A.** Its T-cell proliferation is 2±3%.

**Q.** What about the T-cell proliferation (human PBMCs (T cells); with OV-90 cells, 100 ng/mL, 72 h) of the same substance?
**A.** Its T-cell proliferation is 24±3%.

**Q.** And the T-cell proliferation (human PBMCs (T cells); with PA-1 cells, 1 ng/mL, 72 h)?
**A.** Its T-cell proliferation is roughly 44±7%.

**Q.** What about the T-cell proliferation (human PBMCs (T cells); with PA-1 cells, 100 ng/mL, 72 h, E:T 10:1, three donors) of the same substance?
**A.** The T-cell proliferation was “approximately 58±2%”.

**Q.** What about the “RiboMab02.1 peak level (Cmax) in serum” value ([1]; 10 μg BNT142 weekly x5, 6 h after last injection) of the same substance?
**A.** Its value is “up to 7.4 μg/mL”.

**Q.** And the “RiboMab02.1 translation between subsequent injections” value ([1]; either BNT142 dose)?
**A.** Its value is “no loss in RiboMab02.1 translation”.

**Q.** And the “Ctrough lower than Cmax” value ([1]; within 7 days of each injection)?
**A.** Its value is “approximately 130 fold”.
